# In patent US20060045855A1, “Oral composition for reducing plaque and microbial infections and whitening teeth” (priority 2004, published 2006):
# Legend:
# [1] = Time-course of generation of ClO2 after 1:1 mixing of NaClO2 solution and oxidizing agent solution, change in absorption at 360 nm; details: from NaClO2 in the presence of the oxidizing agent
# Description: The pH of the resulting composition should be at or below about 7, but above the pKa of chlorous acid. It is known that ClO2 is generated from NaClO2 at pH values at or below about 7 in the absence of an oxidizing agent such as […]. However, the generation is quite slow (on the order of days and months). In the presence of an oxidizing agent such as […] or tannic acid, under the conditions described above, therapeutically effective levels of ClO2 begin to be generated in seconds, as shown below in Tables 1 and 2. Increasing the concentration of the oxidizing agent by weight will cause a more rapid generation of ClO2.
# [2] = standard temperature and pressure; cited from earlier work
# [3] = same solution as H2O2; cited from earlier work
SMILES,time in which therapeutically effective levels of ClO2 begin to be generated [1],solubility in water [2],stability in the presence of H2O2 [3]
O=C1O[C@H]([C@@H](O)CO)C(O)=C1O [ascorbic acid],in seconds,,
O=C(OC[C@H]1O[C@@H](OC(=O)c2cc(O)c(O)c(OC(=O)c3cc(O)c(O)c(O)c3)c2)[C@H](OC(=O)c2cc(O)c(O)c(OC(=O)c3cc(O)c(O)c(O)c3)c2)[C@@H](OC(=O)c2cc(O)c(O)c(OC(=O)c3cc(O)c(O)c(O)c3)c2)[C@@H]1OC(=O)c1cc(O)c(O)c(OC(=O)c2cc(O)c(O)c(O)c2)c1)c1cc(O)c(O)c(OC(=O)c2cc(O)c(O)c(O)c2)c1 [tannic acid],in seconds,1 g/0.35 mL water,
O=S(=O)([O-])OOS(=O)(=O)[O-].[Na+].[Na+] [sodium persulfate],,,degrades very quickly
